Data published in PMC10533412, “Phosphoantigens glue butyrophilin 3A1 and 2A1 to activate Vγ9Vδ2 T cells” (Nature, 2023).
Where “and” joins values, the source holds several entries; their conditions need not be identical. Identical values can stand only once. Like-named read-outs stand apart in the source and are kept apart here.

Key:
[1] = system: BTN2A−/− MIA PaCa-2 (BTN2A1/BTN2A2 KO) cells; experiment: Cell killing assay with BTN2A−/− MIA PaCa-2 (BTN2A1/BTN2A2 KO) cells expressing BTN2A1/BTN2A2 variants; conditions: for Cytotoxicity of Vγ9Vδ2 T cells (percentage of specific lysis): replicates; for EC50: Homo sapiens
[2] = biological target: BTN2A1 B30.2 domain (Homo sapiens, UniProt Q7KYR7); conditions: ITC
Chain of BTN2A1 B30.2 domain (Q7KYR7 316-527 limits assumed): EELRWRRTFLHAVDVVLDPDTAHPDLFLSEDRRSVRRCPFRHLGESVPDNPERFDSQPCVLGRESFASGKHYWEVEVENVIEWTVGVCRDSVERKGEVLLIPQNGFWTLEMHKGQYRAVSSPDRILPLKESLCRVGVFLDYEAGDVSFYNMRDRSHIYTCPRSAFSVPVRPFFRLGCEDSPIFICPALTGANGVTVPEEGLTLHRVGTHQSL
Procedure: (§1) ITC experiments were performed using the MicroCal PEAQ-ITC instrument (GE Healthcare) at 25 °C. We used an initial injection of 0.4 μl followed by 19 injections (2 µl each) at 150 s time intervals. ITC binding fits were calculated using MicroCal Analysis software. The samples were prepared using a buffer (20 mM HEPES pH 7.5, 150 mM NaCl).

[3] = system: VpBTN2 BFI–VpBTN3 BFI; experiment: ITC: VpBTN2 BFI binding to VpBTN3 BFI in the presence of pAg; set-up: species or system alpaca (Vicugna pacos)
Procedure: (§2) ITC binding fits were calculated using MicroCal Analysis software.
(§3) ITC experiments of HMBPP, DMAPP or IPP binding to the VpBTN3 BFI (or the preconditioned VpBTN3 BFI and VpBTN2 BFI complex) and VpBTN2 BFI (or VpBTN1 BFI) binding to VpBTN3 BFI in the presence of HMBPP, DMAPP or IPP were performed according to the same procedures as for the BTN3A1 B30.2 and BTN2A1 B30.2.

[4] = biological target: T1, BTN3A3(R351H) B30.2 (Homo sapiens, UniProt O00478); experiment: ITC: HMBPP binding to BTN3A3(R351H) B30.2
T1 construct: the B30.2 domain of this active mutant (BTN3A3(R351H))
T1 sequence (O00478 322-518 R381H): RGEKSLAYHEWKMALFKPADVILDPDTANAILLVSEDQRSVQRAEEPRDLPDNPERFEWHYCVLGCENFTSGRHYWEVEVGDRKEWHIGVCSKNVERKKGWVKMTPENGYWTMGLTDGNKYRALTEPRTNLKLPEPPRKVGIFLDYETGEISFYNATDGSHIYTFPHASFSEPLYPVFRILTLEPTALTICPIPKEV
Procedure: as §2

[5] = system: VpBTN1 BFI–VpBTN3 BFI; experiment: ITC: VpBTN1 BFI binding to VpBTN3 BFI in the presence of pAg; set-up: species or system alpaca (Vicugna pacos)
Procedure: as §1, §3

[6] = biological target: T2, BTN2A1 B30.2–BTN3A1 B30.2 (Homo sapiens, UniProt O00481+Q7KYR7); experiment: Sedimentation velocity AUC of BTN2A1 B30.2 and BTN3A1 B30.2 with or without HMBPP; conditions: SV-AUC
T2 construct: The BTN3A1 B30.2 domain was expressed and purified as described previously; 6xHis; made in house; host or cells: Escherichia coli BL21 (DE3) for BTN2A1 B30.2
T2 sequence (O00481 322-513 limits assumed): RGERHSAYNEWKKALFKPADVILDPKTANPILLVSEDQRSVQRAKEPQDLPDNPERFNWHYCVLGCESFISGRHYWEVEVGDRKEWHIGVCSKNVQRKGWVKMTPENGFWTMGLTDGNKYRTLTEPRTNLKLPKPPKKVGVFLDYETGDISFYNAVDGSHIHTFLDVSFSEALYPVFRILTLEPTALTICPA
T2 sequence (Q7KYR7 316-527 limits assumed): as the sequence (Q7KYR7 316-527 limits assumed) above
Procedure: Sedimentation experiments were performed at 20 °C and 45,000 rpm on the Beckman Coulter ProteomeLab XL-I analytical ultracentrifuge according to standard protocols. All of the samples were prepared in the buffer (20 mM HEPES pH 7.5, 150 mM NaCl) and inserted into 12 mm (or 3 mm) Epon centerpieces.

[7] = biological target: T2, BTN2A1 B30.2–BTN3A1 B30.2; experiment: SEC–MALS of BTN2A1 B30.2–BTN3A1 B30.2 with or without HMBPP; conditions: listed as HMBPP
Procedure: SEC–MALS experiments were performed using the Wyatt Dawn Heleos II multiangle light-scattering detector (Wyatt Technology) coupled to an AKTA Purifier UPC10 FPLC protein purification system and the Superdex 200 size-exclusion column (GE Healthcare). Protein molecular masses of the individual peaks observed in the size-exclusion chromatograms were analysed by static light scattering in conjunction with their corresponding refractive indices, using an online refractometer connected downstream of the static light scattering detector (Wyatt Optilab rEX). The proteins were prepared at 5 mg ml^−1 in a buffer (20 mM HEPES pH 7.5, 150 mM NaCl). HMBPP was prepared in 0.5 mM. The experiments were performed with a running buffer (20 mM HEPES pH 7.5, 150 mM NaCl) at a flow rate of 0.5 ml min^−1. A standard value of the refractive index, dn/dc = 0.185 ml g^−1, was used for all proteins.

[8] = Ext. Fig. 6d, cells expressing 2A2 W374R/M506T, three-parameter fit
[9] = Ext. Fig. 6d, cells expressing 2A2 W374R, three-parameter fit
[10] = Ext. Fig. 6d, cells expressing 2A2 WT, three-parameter fit

Q: With C/C(=C\COP(=O)(O)OP(=O)(O)O)CO [Compound 1, (E)-4-hydroxy-3-methylbut-2-en-1-yl diphosphate] as the compound, how does the “Top (best-fit value)” value ([1]; Ext. Fig. 6d, cells expressing 2A2 M506T, three-parameter fit) read?
A: 50.2

Q: And the “Bottom (best-fit value)” value [1, 8]?
A: 21.03

Q: What about the “Span (best-fit value)” value [1, 8] of the same compound?
A: 27.17

Q: What about the “Top (best-fit value)” value [1, 8] of the same compound?
A: 48.19

Q: What about the “Bottom (best-fit value)” value [1, 9] of the same compound?
A: 17.13

Q: What about the “Span (best-fit value)” value [1, 9] of the same compound?
A: 18.41

Q: And the “Top (best-fit value)” value [1, 9]?
A: 35.54

Q: What about the “Bottom (best-fit value)” value [1, 10] of the same compound?
A: 21.2

Q: And the “Span (best-fit value)” value [1, 10]?
A: 14.17

Q: What about the “Top (best-fit value)” value [1, 10] of the same compound?
A: 35.37

Q: And the “Cytotoxicity of Vγ9Vδ2 T cells (percentage of specific lysis)” value ([1]; HMBPP log concentration -4, 2A1 WT cells)?
A: 70.1646% and 71.1001% and 71.513%

Q: What about the “Cytotoxicity of Vγ9Vδ2 T cells (percentage of specific lysis)” value ([1]; HMBPP log concentration -4, 2A1 ∆C cells) of the same compound?
A: 41.112% and 41.0173% and 41.0139%

Q: And the “Cytotoxicity of Vγ9Vδ2 T cells (percentage of specific lysis)” value ([1]; HMBPP log concentration -5, 2A1 WT cells)?
A: 64.2316% and 64.2674% and 65.8786%

Q: What about the “Cytotoxicity of Vγ9Vδ2 T cells (percentage of specific lysis)” value ([1]; HMBPP log concentration -5, 2A1 ∆C cells) of the same compound?
A: 23.0147% and 25.2364% and 24.5941%

Q: And the “Cytotoxicity of Vγ9Vδ2 T cells (percentage of specific lysis)” value ([1]; HMBPP log concentration -6, 2A1 WT cells)?
A: 56.2518% and 58.0065% and 60.1294%

Q: What about the “Cytotoxicity of Vγ9Vδ2 T cells (percentage of specific lysis)” value ([1]; HMBPP log concentration -6, 2A1 ∆C cells) of the same compound?
A: 18.5277% and 22.0034% and 20.9688%

Q: And the “Cytotoxicity of Vγ9Vδ2 T cells (percentage of specific lysis)” value ([1]; HMBPP log concentration -7, 2A1 WT cells)?
A: 48.0249% and 51.1234% and 56.1132%

Q: And the “Cytotoxicity of Vγ9Vδ2 T cells (percentage of specific lysis)” value ([1]; HMBPP log concentration -7, 2A1 ∆C cells)?
A: 26.9403% and 18.9725% and 19.5843%

Q: And the “Cytotoxicity of Vγ9Vδ2 T cells (percentage of specific lysis)” value ([1]; HMBPP log concentration -8, 2A1 WT cells)?
A: 44.2956% and 44.0311% and 51.5761%

Q: What about the “Cytotoxicity of Vγ9Vδ2 T cells (percentage of specific lysis)” value ([1]; HMBPP log concentration -8, 2A1 ∆C cells) of the same compound?
A: 23.996% and 19.5568% and 15.4363%

Q: And the “Cytotoxicity of Vγ9Vδ2 T cells (percentage of specific lysis)” value ([1]; HMBPP log concentration -9, 2A1 WT cells)?
A: 35.2231% and 37.6052% and 42.4431%

Q: And the “Cytotoxicity of Vγ9Vδ2 T cells (percentage of specific lysis)” value ([1]; HMBPP log concentration -9, 2A1 ∆C cells)?
A: 20.428% and 19.6068% and 15.0611%

Q: And the “Cytotoxicity of Vγ9Vδ2 T cells (percentage of specific lysis)” value ([1]; HMBPP log concentration -10, 2A1 WT cells)?
A: 29.643% and 30.0604% and 32.9175%

Q: And the “Cytotoxicity of Vγ9Vδ2 T cells (percentage of specific lysis)” value ([1]; HMBPP log concentration -10, 2A1 ∆C cells)?
A: 15.4573% and 16.0868% and 15.1497%

Q: And the “Cytotoxicity of Vγ9Vδ2 T cells (percentage of specific lysis)” value ([1]; HMBPP log concentration -11, 2A1 WT cells)?
A: 26.3218% and 25.6969% and 24.6851%

Q: What about the “Cytotoxicity of Vγ9Vδ2 T cells (percentage of specific lysis)” value ([1]; HMBPP log concentration -11, 2A1 ∆C cells) of the same compound?
A: 16.8095% and 15.8259% and 16.2096%

Q: What about the EC50 ([1]; MIA PaCa-2, 144 h, Ext. Fig. 6d, cells expressing 2A1 WT, three-parameter fit) of the same compound?
A: 90.3 nM

Q: And the EC50 ([1]; MIA PaCa-2, 144 h, Ext. Fig. 6d, cells expressing 2A2 G352Y354QR/M506T/W374R, three-parameter fit)?
A: 176 nM

Q: What about the EC50 ([1]; MIA PaCa-2, 144 h, Ext. Fig. 6d, cells expressing 2A2 M506T, three-parameter fit) of the same compound?
A: 266 nM

Q: And the EC50 ([1]; MIA PaCa-2, 144 h, Ext. Fig. 6d, cells expressing 2A2 W374R/M506T, three-parameter fit)?
A: 191 nM

Q: What about the EC50 ([1]; MIA PaCa-2, 144 h, read-out: LogEC50, Ext. Fig. 6d (converted), cells expressing 2A1 WT, log(Concentration)/M, three-parameter fit) of the same compound?
A: 90.2 nM

Q: What about the EC50 ([1]; MIA PaCa-2, 144 h, read-out: LogEC50, Ext. Fig. 6d (converted), cells expressing 2A2 G352Y354QR/M506T/W374R, log(Concentration)/M, three-parameter fit) of the same compound?
A: 176 nM

Q: What about the EC50 ([1]; MIA PaCa-2, 144 h, read-out: LogEC50, Ext. Fig. 6d (converted), cells expressing 2A2 M506T, log(Concentration)/M, three-parameter fit) of the same compound?
A: 267 nM

Q: What about the EC50 ([1]; MIA PaCa-2, 144 h, read-out: LogEC50, Ext. Fig. 6d (converted), cells expressing 2A2 W374R/M506T, log(Concentration)/M, three-parameter fit) of the same compound?
A: 191 nM

Q: What about the EC50 ([1]; MIA PaCa-2, read-out: EC50 (nM), MIA PaCa-2 cell lysis by Vγ9Vδ2 T cells exposed to HMBPP, 2A1 WT) of the same compound?
A: 90.3 nM

Q: What about the EC50 ([1]; MIA PaCa-2, read-out: EC50 (nM), MIA PaCa-2 cell lysis by Vγ9Vδ2 T cells exposed to HMBPP, active chimera bearing G352Y354QR/ M506T/W374R) of the same compound?
A: 176 nM

Q: What about the EC50 ([1]; MIA PaCa-2, read-out: EC50 (nM), MIA PaCa-2 cell lysis by Vγ9Vδ2 T cells exposed to HMBPP, active chimera bearing W374R/M506T) of the same compound?
A: 191 nM

Q: What about the EC50 ([1]; MIA PaCa-2, read-out: EC50 (μM) of Vγ9Vδ2 T cells towards BTN2A−/− MIA PaCa-2 in the presence of HMBPP, NT cells) of the same compound?
A: 12800 nM

Q: And the EC50 ([1]; MIA PaCa-2, read-out: EC50 (μM) of Vγ9Vδ2 T cells towards BTN2A−/− MIA PaCa-2 in the presence of HMBPP, transfected 2A1 WT)?
A: 800 nM

Q: And the EC50 ([1]; MIA PaCa-2, read-out: EC50 (μM) of Vγ9Vδ2 T cells towards BTN2A−/− MIA PaCa-2 in the presence of HMBPP, transfected 2A1 variant D455G/E457R)?
A: 61100 nM

Q: And the EC50 ([1]; MIA PaCa-2, read-out: EC50 (μM) of Vγ9Vδ2 T cells towards BTN2A−/− MIA PaCa-2 in the presence of HMBPP, transfected 2A1 variant R477A)?
A: 19700 nM

Q: What about the EC50 ([1]; MIA PaCa-2, read-out: EC50 (μM) of Vγ9Vδ2 T cells towards BTN2A−/− MIA PaCa-2 in the presence of HMBPP, transfected 2A1 variant T510A) of the same compound?
A: 1.17e+06 nM

Q: And the EC50 ([1]; MIA PaCa-2, read-out: EC50 (μM) of Vγ9Vδ2 T cells towards BTN2A−/− MIA PaCa-2 in the presence of HMBPP, transfected 2A1 variant T510M)?
A: 97700 nM

Q: What about the EC50 ([1]; MIA PaCa-2, read-out: EC50 (μM) of Vγ9Vδ2 T cells towards BTN2A−/− MIA PaCa-2 in the presence of HMBPP, transfected 2A1 variant V511A) of the same compound?
A: 130000 nM

Q: And the EC50 ([1]; MIA PaCa-2, read-out: EC50 (μM) of Vγ9Vδ2 T cells towards BTN2A−/− MIA PaCa-2 in the presence of HMBPP, transfected 2A1 variant V511D)?
A: 12500 nM

Q: And the EC50 ([1]; MIA PaCa-2, read-out: EC50 (μM) of Vγ9Vδ2 T cells towards BTN2A−/− MIA PaCa-2 in the presence of HMBPP, transfected 2A1 variant V511W)?
A: 389000 nM

Q: What about the EC50 ([1]; MIA PaCa-2, read-out: EC50 (μM) of Vγ9Vδ2 T cells towards BTN2A−/− MIA PaCa-2 in the presence of HMBPP, transfected 2A1 variant ΔC) of the same compound?
A: 17500 nM

Q: And the EC50 ([1]; MIA PaCa-2, read-out: EC50, MIA PaCa-2 lysis, BTN2A−/− MIA PaCa-2 stably expressing BTN2A1 WT)?
A: 12.9 nM

Q: What about the EC50 ([1]; MIA PaCa-2, read-out: EC50, best-fit value, 2A1 WT, unit not printed in the sheet (b166 prints […])) of the same compound?
A: 12.9 nM

Q: What about the EC50 ([1]; MIA PaCa-2, read-out: EC50, best-fit value, 2A1 ∆C, unit not printed in the sheet (b166 prints […])) of the same compound?
A: 43900 nM

Q: What about the “HMBPP binding to BTN2A1 B30.2 domain” value [2] of the same compound?
A: does not bind

Q: And the “Binding of VpBTN2 mutants (R475A, T508M and V509A) to VpBTN3 in the presence of HMBPP” value [3]?
A: abolished its binding

Q: What about the Kd [4] of the same compound?
A: 10.9 µM

Q: And the “VpBTN1 binding to VpBTN3 in the presence of pAg” value [5]?
A: does not bind

Q: And the “Molecular mass of BTN2A1 B30.2–BTN3A1 B30.2 oligomer formed on addition of HMBPP (tetramer)” value [6]?
A: 94.9 kDa

Q: What about the “Molecular mass of BTN2A1 B30.2–BTN3A1 B30.2 oligomer formed on addition of HMBPP (trimer)” value [7] of the same compound?
A: 78.7 kDa
